Columns and labels:
human melanocytes = experiment: Melanogenesis in cultured primary human melanocytes; assay type: cell-based
Procedure: Rapamycin (also called sirolimus) inhibits immune attack by inhibiting the response to interleukin-2 (IL-2) and blocking activation of T- and B-cells. Rapamycin binds to the cytosolic protein FK-binding protein 12 (FKBP12) and inhibits the mammalian target of rapamycin (mTOR) pathway by directly binding the mTOR Complex 1 (mTORC1). […] For example, FIG. 1 depicts a western blot of lysates from HL60 cells, a model system for studying human myeloid cell differentiation, which were treated with rapamycin for 24 hours. […] Additionally, FIG. 2 depicts human melanocytes that were treated with rapamycin (0.01 μM) for 96 hours.
(§1) In FIG. 5, Primary Human melanocytes were treated with each agent or the combination for 96 h. […] FIG. 7 depicts a Western blot for protein expression of survival signals in primary human melanocytes treated with FGF, stem cell factor (SCF), forskolin and alpha-MSH, as compared to untreated melanocytes. […] Designation of 1 indicates the darkening (repigmentation) of skin surrounding hair follicles.

[1] = system: primary human melanocytes; experiment: Proliferation of primary human melanocytes; assay type: cell-based; settings: 10 ng/mL, 96 h, DMSO as untreated control (FIG. 3)
Procedure: In some embodiments, the present invention is directed to a composition comprising a cosmeceutically acceptable carrier, rapamycin and growth factors such as fibroblast growth factor (FGF), Stem cell Factor (SCF) or Endothelins. […] In FIG. 3, treated Primary Human melanocytes were treated with bFGF (10 ng/mL) with DMSO as untreated control for 96 h. Growth Factors such as basic Fibroblast Growth Factor, Stem Cell Factor and Endothelins are important regulators of melanocyte differentiation, migration, proliferation and survival. Growth factors can therefore protect cells from destruction induced by immune cells. Furthermore, growth factors such as those described, can potentially increase migration of melanoblasts (melanocyte precursor cells) from peripheral regions of vitiligo patches or from hair follicles into the vitiligo lesion thus allowing repigmentation.
as §1

N[C@@H](Cc1ccc(O)cc1)C(=O)O [L-Tyrosine]
melanogenesis in cultured primary melanocytes (human melanocytes; 96 hours (FIG. 10)): increased melanogenesis

bFGF: recombinant human basic fibroblast growth factor (FGF2)
proliferation of primary human melanocytes [1]: increases proliferation

N[C@@H](Cc1ccc(O)c(O)c1)C(=O)O [L-dopa, L-DOPA]
melanogenesis compared to untreated melanocytes (human melanocytes; FIG. 6): increased melanogenesis
melanogenesis in human melanocytes (human melanocytes; each agent alone, 96 h (FIG. 4)): melanogenesis increases
